The experiment deals with T1, Stimulator of interferon genes protein [154-378] (Mus musculus, UniProt Q3TBT3).
T1 construct: 154-378
T1 sequence (Q3TBT3 whole entry): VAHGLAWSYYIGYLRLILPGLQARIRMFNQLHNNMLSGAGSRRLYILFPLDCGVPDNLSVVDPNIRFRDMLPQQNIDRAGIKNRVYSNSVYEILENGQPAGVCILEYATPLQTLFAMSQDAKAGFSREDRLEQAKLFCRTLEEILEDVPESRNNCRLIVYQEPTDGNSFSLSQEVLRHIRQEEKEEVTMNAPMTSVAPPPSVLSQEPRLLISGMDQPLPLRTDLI
Description: Binding Assay.

The compound `NC(=O)c1cnc2c(c1)nc1n2CCOP(=O)(S)OC[C@H]2O[C@@H](n3cnc4c(=O)[nH]c(N)nc43)[C@H](OP(=O)(S)OC1)[C@@H]2F` (stereo partly specified) [US11161864, Example 37A] returned an IC50 of under 1000 nM.
